Results from publication PMC11188489, “Pharmacokinetic assessment of tacrolimus in combination with deoxyschizandrin in rats” (Frontiers in Pharmacology, 2024).
“Also recorded” adds a separate entry of the source.

How the values were obtained:
[1] = Stability of the two analytes in rat plasma under different storage conditions; type: in vitro ADME; conditions: n=5
Method: To prepare the stock solution, approximately 2.00 mg of Tac, deoxyschizandrin and IS were accurately weighed and dissolved in methanol, respectively. The stock solutions of Tac and deoxyschizandrin with a final concentration of 1.00 mg/mL was obtained, and the IS stock solution was diluted to 100.00 ng/mL using methanol before use. The stock solutions were aliquoted and stored at −80°C. Combined working solutions were prepared by diluting the stock solution using 10% aqueous methanol at the following concentrations: 5.00, 10.00, 20.00, 50.00, 100.00, 200.00, 500.00, 1,000.00, and 2,000.00 ng/mL. Blank rat plasma was used to prepare the calibration standards. Quality-control (QC) samples of two analytes were prepared separately in the same manner at three concentrations, namely, 10 (low concentration), 100 (middle), 1,000 ng/mL (high), and all QC samples were stored at −80°C.
The methodology validation was completed according to FDA guidelines and Chinese Pharmacopoeia (2015 edition), and the linearity, inter- and intra-precision and accuracy, matrix effect and extraction recovery, stability and specificity of this method were validated according to previous study ([Lu et al., 2022]; [Wang et al., 2022]; [Shu et al., 2016]).

[2] = Pharmacokinetics of deoxyschizandrin in rats after single and multiple administrations (UHPLC-MS/MS of plasma); type: in vivo, SD rats; conditions: for AUMC0→t / AUC(0-t) / AUC(0-inf) / Cmax / MRT / Tmax / half-life: rat plasma; for AUC(0-t) / AUC(0-inf) / Cmax / MRT / Tmax / half-life: male, SD, rat, plasma
Method: The mobile phase A was acetonitrile, and mobile phase B was 0.1% formic acid in water, and the initial mobile phase of gradient elution program was consisted of 60% phase A and 40% phase B. The sample injection volume was set at 10 μL. Gradient elution program was supplied in Supplementary Table S1.
The mass spectrometry detection was achieved on an Agilent 6460A mass spectrometer with ESI source. […] The settings of the mass spectrometer source were as follows: capillary voltage 4,000 V, sheath gas flow 12 L/min, temperature 400°C, dry gas (nitrogen) flow 10 L/min and temperature 350°C, nebulizer pressure 45 psi. All analytes were detected in positive ionization mode. Collision gas (high purity liquid nitrogen) was set at 0.25 MPa. The structures of both two analytes and IS are display in Figure 1.
The pretreatment was performed for the plasma sample by one-step protein precipitation, Briefly, 100 μL sample was transferred into a 1.5 mL EP tube prior to adding with 300 μL methanol(containing 200 ng/mL IS). The mixture was vortex-mixed for 30 s before centrifugation at 17,400 g for 10 min at room temperature, and 100 μL of the supernatant was diluted with 100 μL of acetonitrile (v/v, 1:1) Then, a 10 μL aliquoted of diluted solution was injected into the UHPLC-MS/MS system for analysis.
The protocol of the animal study was approved by the Experimental Animal Ethics Committee of the Shanghai University of Traditional Chinese Medicine. Specific Pathogen Free (SPF) grade SD rats, male, 8 weeks old, 200–250 g, were obtained from the animal experiment center of Shanghai University of Traditional Chinese Medicine. After passing quarantine, the rats were adaptive fed for 2 days. Rats were fasted for 12–14 h, followed by the initiation of pharmacokinetic study of Tac and deoxyschizandrin. This animal study was carried out in accordance with the National Institutes of Health Guide for the Care and Use of Laboratory animals.
(§1) In this study, 42 rats were divided equally into seven groups of six rats each, numbered NG2201-NG2207. Among them, the NG2201 and NG2202 group was dosed with 150 mg/kg deoxyschizandrin alone to study the PK of deoxyschizandrin in rats after single and multiple doses; the NG2203 group was administrate dosed with 1.0 mg/kg of Tac; the NG2204-NG2206 groups were dosed with 75, 150, and 300 mg/kg of deoxyschizandrin plus 1.0 mg/kg Tac, respectively, and the NG2207 group was dosed with the Wuzhi capsule (approximately equal to 150 mg/kg of deoxyschizandrin) plus 1.0 mg/kg of Tac ([Teng et al., 2022]). The detailed dosing regimen is shown in Table 2, and all dose in this experiment were calculated according to clinical dose. Blood samples (approximately 300 μL for each) for PK analysis were collected into lithium–heparin tubes. The plasma sampling schedules are outlined below: Blood samples were drawn pre-dose, at 5, 10, 20 and 30 min, and at 1, 1.5, 2, 4, 8 and 24 h after drug administration. The blood samples were centrifuged at 5,000 g for 15 min at 4°C to collect plasma samples, which were placed −80 refrigerator.
The rat plasma collected from each group was pretreated according to the method in section 2.5, and exposure levels of Tac and deoxyschizandrin were determined using the above established UHPLC-MS/MS method and the PKs were calculated using DAS software using non-compartment model (version 2.0, China Pharmacological Society). The data were presented as mean ± SD.

[3] = Observation of adverse reactions in rats during 12 days of continuous administration; type: in vivo; conditions: 150 mg/kg deoxyschizandrin oral
Method: as §1, with “refrigerator. […]” for “refrigerator.”

[4] = po, 150 mg/kg, NG2201: 150 mg/kg deoxyschizandrin single, D1-D2
[5] = po, 150 mg/kg, NG2202: 150 mg/kg deoxyschizandrin multiple (12 days), D11-D12

Auto-sampler stability (24h, 4℃) Mean ± SD ([1]; Nominal Conc. 10 ng/mL): 10.23±0.93
Bench-top stability (8h, RT) Mean ± SD ([1]; Nominal Conc. 10 ng/mL): 10.63±0.83
Frozen-thaw stability (3 times) Mean ± SD ([1]; Nominal Conc. 10 ng/mL): 10.45±1.01
Long-term stability (1 month, -80℃) Mean ± SD ([1]; Nominal Conc. 10 ng/mL): 10.37±0.25
Auto-sampler stability (24h, 4℃) Mean ± SD ([1]; Nominal Conc. 100 ng/mL): 104.49±5.32
Bench-top stability (8h, RT) Mean ± SD ([1]; Nominal Conc. 100 ng/mL): 102.39±2.82
Frozen-thaw stability (3 times) Mean ± SD ([1]; Nominal Conc. 100 ng/mL): 111.56±12.48
Long-term stability (1 month, -80℃) Mean ± SD ([1]; Nominal Conc. 100 ng/mL): 101.86±11.38
Auto-sampler stability (24h, 4℃) Mean ± SD ([1]; Nominal Conc. 1000 ng/mL): 1024.65±13.44
Bench-top stability (8h, RT) Mean ± SD ([1]; Nominal Conc. 1000 ng/mL): 1014.96±11.94
Frozen-thaw stability (3 times) Mean ± SD ([1]; Nominal Conc. 1000 ng/mL): 1050.50±50.54
Long-term stability (1 month, -80℃) Mean ± SD ([1]; Nominal Conc. 1000 ng/mL): 1012.51±45.24
increase of C max of deoxyschizandrin after consecutive 12 days of administration ([2]; 150 mg/kg, multiple vs single dose, rats): about 1.5 fold
AUMC0→t ([2]; NG2201: 150 mg/kg deoxyschizandrin single, D1-D2): 4,088.71 ± 1,056.37 ng. h^2/mL
AUMC0→t ([2]; NG2202: 150 mg/kg deoxyschizandrin multiple (12 days), D11-D12): 13,360.23 ± 8,009.79 ng. h^2/mL
AUC(0-t) ([2]; oral, 150 mg/kg, NG2201: 150 mg/kg deoxyschizandrin, first day): 786 ± 174 ng·h/mL
AUC(0-t) ([2]; oral, 150 mg/kg, NG2202: after 12 days of continuous administration of 150 mg/kg deoxyschizandrin): 1810 ± 707 ng·h/mL
AUC(0-inf) [2, 4]: 806 ± 176 ng·h/mL
AUC(0-t) [2, 4]: 786 ± 174 ng·h/mL
Cmax [2, 4]: 148 ± 23.2 ng/mL
MRT [2, 4]: 5.17 ± 0.33 h
Tmax [2, 4]: 0.92 ± 0.2 h
half-life [2, 4]: 4.48 ± 0.53 h
AUC(0-inf) [2, 5]: 2410 ± 1720 ng·h/mL
AUC(0-t) [2, 5]: 1810 ± 707 ng·h/mL
Cmax [2, 5]: 229 ± 54.8 ng/mL
MRT [2, 5]: 6.95 ± 1.42 h
Tmax [2, 5]: 1.5 ± 1.23 h
half-life [2, 5]: 9.1 ± 7.83 h
Compound: COc1cc2c(c(OC)c1OC)-c1c(cc(OC)c(OC)c1OC)C[C@H](C)[C@H](C)C2 [deoxyschizandrin]
adverse reactions [3]: No adverse reactions occurred; also recorded: no adverse effects were demonstrated
